Tested on: rat heart tissue
Assay: GENECALLING differential gene expression analysis after dosing of serotonin modulating agents
Assay type: in vivo, Sprague Dawley rats
Method in brief: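 Rats dosed with serotonin modulating agents, controls given sterile water or canola oil; tissue taken 24 h after the last dose. Total RNA converted to cDNA and profiled by GENECALLING differential expression analysis; fragments changed more than ±1.5-fold were selected.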

CN1C[C@H](C(=O)N[C@]2(C)O[C@@]3(O)[C@@H]4CCCN4C(=O)[C@H](Cc4ccccc4)N3C2=O)C[C@@H]2c3cccc4[nH]cc(c34)C[C@H]21 [dihydroergotamine]
Effects on Transcription Level: Novel gene fragment, 524 bp, 86% SI to mouse F-box protein FBX6b [AF176526] (CARDIOTOX 1): +1.3 fold | Effects on Transcription Level: Novel gene fragment, 306 bp, 91% SI to mouse low density lipoprotein receptor related protein 4 [AB013874] (CARDIOTOX 2): −1.4 fold | Effects on Transcription Level: Novel gene fragment, 540 bp, 97% SI to mouse skeletal muscle alpha-actin [X03766] (CARDIOTOX 3): +1.2 fold | Effects on Transcription Level: Novel gene fragment, 80 bp (CARDIOTOX 4): −1.4 fold | Effects on Transcription Level: Novel gene fragment, 957 bp, 99% SI to kidney injury associated moleculer HW036 [V80591] (CARDIOTOX 5): −1.4 fold | Effects on Transcription Level: Novel gene fragment, 282 bp, 85% SI to human KIAA1515 protein [AB040948] (CARDIOTOX 6): −1.2 fold | Effects on Transcription Level: Novel gene fragment, 405 bp, 88% SI to human 2-oxoglutarate dehydrogenase [D10523] (CARDIOTOX 7): +1.3 fold | Effects on Transcription Level: UCP2 (CARDIOTOX 8, GenBank AB010743): +1.0 fold | Effects on Transcription Level: Plasma membrane Ca2 + ATPase-isoform 1 (CARDIOTOX 9, GenBank J03753): −1.4 fold | Effects on Transcription Level: Novel gene fragment, 242 bp, 97% SI to mouse HSP86 heat-shock protein [X16857] (CARDIOTOX 10): +1.0 fold | Effects on Transcription Level: Novel gene fragment, 280 bp, 65% SI to human TRF1-interacting, ankyrin-related ADP-ribose polymerase [AF082556] (CARDIOTOX 11): +1.3 fold | Effects on Transcription Level: Novel gene fragment, 348 bp, 88% SI to mouse Sec61 protein complex gamma subunit [U11027] (CARDIOTOX 12): +1.4 fold | Effects on Transcription Level: Novel gene fragment 553 bp, 93% SI to mouse Sid329 [AB024984] (CARDIOTOX 13): +1.2 fold | Effects on Transcription Level: Kruppel-like transcription factor (CARDIOTOX 14, GenBank AB020759): +1.2 fold | Effects on Transcription Level: Ribosomal protein L3 (CARDIOTOX 15, GenBank X62166): +1.4 fold | Effects on Transcription Level: Glucose-regulated protein (GRP) 75 (CARDIOTOX 16, GenBank S78556): +1.2 fold | Effects on Transcription Level: Immunoglobulin heavy chain binding protein (BiP) (CARDIOTOX 17, GenBank M14050): +1.2 fold | Effects on Transcription Level: Membrane-spannining proteoglycan NG2 (CARDIOTOX 18, GenBank X56541): −1.4 fold | Effects on Transcription Level: Novel gene fragment, 1294 bp, 96% SI to mouse Sui 1 (elF) homolog [AF129888] (CARDIOTOX 19): +1.1 fold | Effects on Transcription Level: Novel gene fragment, 723 bp, 85% SI to human translation initiation factor elF3 p40 subunit [U54559] (CARDIOTOX 20): +1.2 fold | Effects on Transcription Level: Novel gene fragment, 1324 bp, 76% SI to human flavoprotein subunit of complex II [D30648] (CARDIOTOX 21): +1.3 fold | Effects on Transcription Level: Novel gene fragment, 852 bp, 81% SI to human vacuolar proton-ATPase subunit M9.2 [Y15286] (CARDIOTOX 22): +1.4 fold | Effects on Transcription Level: Novel gene fragment, 178 bp, 91% SI to mouse myosin light chain-2 isoform MLC-2a [S70785] (CARDIOTOX 23): +1.2 fold | Effects on Transcription Level: Novel gene fragment, 167 bp, 90% SI to mouse Rab20 [X80332] (CARDIOTOX 24): +1.2 fold | Effects on Transcription Level: Novel gene fragment, 1070 bp, 80% SI to human muscle-specific protein [AF249873] (CARDIOTOX 25): +1.2 fold | Effects on Transcription Level: Novel gene fragment, 1143 bp, 82% SI to human sarcoma amplified sequence (SAS) [U01160] (CARDIOTOX 26): +1.4 fold | Effects on Transcription Level: Novel gene fragment, 74 bp,75% SI to human secreted protein [X30160] (from patent database)/[X97578] (from patent database)/potential cytokine) (CARDIOTOX 27): +1.4 fold | Effects on Transcription Level: Novel gene fragment, 408 bp, 90% SI to human CGI-07 protein [AF132941] (CARDIOTOX 28): +1.2 fold | Effects on Transcription Level: Novel gene fragment, 618 bp, 95% SI to rat progression related cDNA, ZNPE-120 3′ end partial sequence [patent database X90805] (CARDIOTOX 29): +1.0 fold | Effects on Transcription Level: Novel gene fragment, 717 bp (CARDIOTOX 30): +1.2 fold | Effects on Transcription Level: Novel gene fragment, 546 bp (CARDIOTOX 31): −1.0 fold | Effects on Transcription Level: Novel gene fragment, 920 bp, 91% SI to human HSPC061 [AF161546] (CARDIOTOX 32): +1.3 fold | Effects on Transcription Level: Novel gene fragment, 203 bp, 92% SI to rabbit sarcoplasmic reticulum glycoprotein [J04480] (CARDIOTOX 33): −1.1 fold | Effects on Transcription Level: Novel gene fragment, 178 bp, 68% SI to mouse IgG receptor (beta-Fc-gamma-RII)[M63159] (CARDIOTOX 34): +1.2 fold | Effects on Transcription Level: Ribosomal protein L6 (CARDIOTOX 35, GenBank X87107): +1.4 fold | Effects on Transcription Level: CAP2 protein (adenylyl cyclase-associated protein 2) (CARDIOTOX 36, GenBank U31935): +1.2 fold | Effects on Transcription Level: Alpha-platelet-derived growth factor receptor (CARDIOTOX 37, GenBank M63837): −1.0 fold | Effects on Transcription Level: Rab GD1 alpha protein (CARDIOTOX 38, GenBank X74402): −1.1 fold | Effects on Transcription Level: PKC-zeta-interacting protein (CARDIOTOX 39, GenBank Y08355): +1.2 fold | Effects on Transcription Level: ERK or MAP kinase (CARDIOTOX 40, GenBank X65198): +1.4 fold | Effects on Transcription Level: Peroxisomal multifunctional enzyme type II (CARDIOTOX 41, GenBank U37486): +1.2 fold | Effects on Transcription Level: HBP23 (heme-binding protein 23 kDa) (CARDIOTOX 42, GenBank D30035): +1.3 fold | Effects on Transcription Level: Caveolae-associated protein (CARDIOTOX 43, GenBank U90725): +1.3 fold | Effects on Transcription Level: Prenylated rab acceptor 1 (PRA1) (CARDIOTOX 44, GenBank AF025506): +1.0 fold | Effects on Transcription Level: Novel gene fragment, 337 bp, 88% SI to rabbit cardiac ryanodine receptor (RyR-2)[U50465] (CARDIOTOX 45): −2.5 fold | Effects on Transcription Level: Novel gene fragment, 81 bp, 85% SI to human titin [X90568] (CARDIOTOX 46): −2.8 fold | Effects on Transcription Level: Novel gene fragment, 428 bp, 86% SI to human titin [X90568] (CARDIOTOX 47): −1.7 fold | Effects on Transcription Level: Novel gene fragment, 374 bp, 88% SI to human titin [X90568] (CARDIOTOX 48): −5.5 fold | Effects on Transcription Level: Novel gene fragment, 428 bp, 85% SI to human titin [90568] (CARDIOTOX 49): −3.8 fold | Effects on Transcription Level: Novel gene fragment, 1216 bp, 93% SI to mouse mircotubule-associated protein (MAP) 1B protein [AF115776] (CARDIOTOX 50): −1.5 fold | Effects on Transcription Level: Novel gene fragment, 1115 bp, 83% SI to human KIAA0549 protein [AB011121] (CARDIOTOX 51): −1.5 fold | Effects on Transcription Level: Novel gene fragment, 153 bp (CARDIOTOX 52): −1.7 fold | Effects on Transcription Level: Novel gene fragment, 89 bp, 93% SI to human putative glialblastoma cell differentiation-related protein (GBDR1) [AF068195] (CARDIOTOX 53): +1.5 fold | Effects on Transcription Level: Rho-associated kinase beta (CARDIOTOX 54, GenBank U61266): −2.6 fold | Effects on Transcription Level: Adenylate kinase 3 (CARDIOTOX 55, GenBank D13062): +1.5 fold | Effects on Transcription Level: Amyloid beta-peptide binding protein (CARDIOTOX 56, GenBank AF049878): +1.7 fold | Effects on Transcription Level: Mitochondrial adenine nuleotide translocator (CARDIOTOX 57, GenBank D12771): +1.8 fold | Effects on Transcription Level: Novel gene fragment, 710 bp, 94% SI to mouse chromatin structural protein homolog Supt5 hp (Supt5 h)[U88539] (CARDIOTOX 58): +2.8 fold | Effects on Transcription Level: Novel gene fragment, 186 bp, 66% SI to human N-acetylglucosaminyltransferase 1 (GlcNAc-TI)[M55621] (CARDIOTOX 60): −1.5 fold | Effects on Transcription Level: Novel gene fragment, 238 bp, 95% SI to mouse MAP kinase-activated protein kinase 2 [X76850] (CARDIOTOX 61): −1.5 fold | Effects on Transcription Level: Novel gene fragment, 173 bp, 70% SI to G protein-coupled receptor kinase GRK4 [X97568] (CARDIOTOX 62): −7.2 fold | Effects on Transcription Level: Novel gene fragment, 133 bp, 77% SI to human apoptosis related protein hSARP3 [patent database: V19114] (CARDIOTOX 63): −2.5 fold | Effects on Transcription Level: Novel gene fragment, 477 bp, 98% SI to peroxisomal phytanoyl-CoA hydroxylase (PHYH) [AF121345] (CARDIOTOX 64): +8.0 fold | Effects on Transcription Level: Novel gene fragment, 413 bp, 95% SI to mouse dihydrolipoamide dehydrogenase (Dld) [U73445] (CARDIOTOX 65): +2.2 fold | Effects on Transcription Level: Novel gene fragment, 726 bp, 76% SI to human succinate dehydrogenase flavoprotein subunit (SDH) [L21936] (CARDIOTOX 66): −3.6 fold | Effects on Transcription Level: Novel gene fragment, 440 bp, 92% SI to mouse cytochrome c oxidase Vllc [X52940] (CARDIOTOX 67): +4.1 fold | Effects on Transcription Level: Novel gene fragment, 276 bp, 80% SI to human titin [X90568] (CARDIOTOX 68): −6.5 fold | Effects on Transcription Level: Novel gene fragment, 149 bp, 70% SI to human titin [X90568] (CARDIOTOX 69): +8.0 fold | Effects on Transcription Level: Novel gene fragment, 467 bp, 94% SI to mouse gelsolin [J04953] (CARDIOTOX 70): −1.6 fold

— US20040005537A1, “Method of identifying toxic agents using differential gene expression” (priority 2000, published 2004)
